According to patent US20150034084A1, “[…] NITRIC OXIDE FOR TREATING RESPIRATORY DISEASES” (Advanced Inhalation Therapies (AIT) Ltd., priority 2012, published 2015):

Columns and labels:
Pseudomonas aeruginosa = details: 160 ppm gNO, intermittent 30 minute exposures, rat; cited from earlier work
[1] = rats, gNO concentrations below 200 ppm, 6 hours/day for 28 days; cited from earlier work
Acinetobacter sp. = details: 200 ppm gNO, saline; cited from earlier work
Klebsiella sp.#3 = details: 200 ppm gNO, saline; cited from earlier work
Klebsiella sp.#2 = details: 200 ppm gNO, saline; cited from earlier work
E. Coli = details: 200 ppm gNO, saline; cited from earlier work
[2] = Phase I safety study: pulmonary function tests; type: in vivo, human
Procedure: After obtaining informed consent, treatment was initiated within 5 days of enrollment. Subjects were housed in a hospital ward and received 160 ppm gNO for 30 minutes every four hours (Q4h), five times a day, for five consecutive days by inhalation. Subjects returned for follow-up evaluations 3, 7 and 21 days after the final gNO administration. Subject safety was determined by monitoring vital signs, methemoglobin levels, lung function, blood chemistry, hematology, prothrombin time, inflammatory cytokine/chemokines levels and endothelial activation. These parameters were compared to baseline and at various time-points during and after gNO administration.
Subjects underwent full pulmonary function tests (PFT), including lung diffusing capacity (DLCO) by a trained technician utilizing a calibrated pulmonary function system (Jaeger MasterScreen, VIASYS Healthcare, USA) on screening and days 2, 8, 12 and 26. Spirometry test (Microloop by Micro Medical, England) was performed on days 1, 3 and 4. Effect of gNO on lung function and DLCO was determined by changes from baseline, treatment days and follow up days.

SMILES: [N]=O [gNO, nitric oxide]
- pulmonary bioburden and leukocyte infiltration (Pseudomonas aeruginosa): effective to reduce the pulmonary bioburden and leukocyte infiltration
- deaths [1]: No deaths occurred
- LD100 (Acinetobacter sp.): 6 h
- Latent Period (Acinetobacter sp.): 4 h
- −2.5 Log10 (Acinetobacter sp.): 5 hours
- LD100 (Klebsiella sp.#3): 6 h
- Latent Period (Klebsiella sp.#3): 3 h
- −2.5 Log10 (Klebsiella sp.#3): 5.1 hours
- LD100 (Klebsiella sp.#2): 5 h
- Latent Period (Klebsiella sp.#2): 2 h
- −2.5 Log10 (Klebsiella sp.#2): 4.1 hours
- LD100 (E. Coli): 5 h
- Latent Period (E. Coli): 3 h
- −2.5 Log10 (E. Coli): 4.2 hours
- lung parenchymal injury ([2]; 160 ppm NO, measured by lung function parameters): did not cause lung parenchymal injury
- pulmonary function tests, abnormalities ([2]; during and after gNO administration, 160 ppm): did not reveal any abnormalities
- DLCO versus baseline ([2]; during the course of the study): did not change from baseline
- FEV1 versus baseline ([2]; during the course of the study): did not differ from baseline
- forced vital capacity (FVC) versus baseline ([2]; during the course of the study): did not change from baseline
- maximum mid-expiratory flow (MMEF) versus baseline ([2]; during the course of the study): did not differ from baseline
- residual volume (RV) versus baseline ([2]; during the course of the study): did not change from baseline
- total lung capacity (TLC) versus baseline ([2]; during the course of the study): did not change from baseline
